Assay results taken from patent US20250154686A1, “COMPOUND LIBRARY” (CHUGAI SEIYAKU KABUSHIKI KAISHA, priority 2021, published 2025).

Target: T1, Bcl-2 protein (Recombinant Human Bcl-2 Protein) (Homo sapiens, UniProt P10415)
T1 construct: purchased Novus Biologicals NBP2-34889
Assay: AS-MS evaluation of binding of the Example 4 mixture library (1200 compounds/well) to Bcl-2, ASMS ratio (%)
How it was run: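 Binding is read as an ASMS ratio from reverse-phase LC/MS peak data. Samples: 1200 compounds at 20 nM each with 20 μM Bcl-2, 1 h at 23 °C in the dark, then P-2 SEC and organic-solvent extraction; references lacked protein, with and without SEC.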

[1] = replicate n = 1, mixture library, value belongs to the MS peak assigned to the compound
[2] = replicate n = 2, mixture library, value belongs to the MS peak assigned to the compound
[3] = AS-MS, Example 4 mixture library, Bcl-2, replicate n = 1
[4] = AS-MS, Example 4 mixture library, Bcl-2, replicate n = 2
[5] = Example 4 mixture library, 1200 compounds/well, Bcl-2 protein, replicate n = 2, value belongs to the MS peak assignable to the compound
[6] = AS-MS, mixture of 1200 compounds/well, Bcl-2 protein, replicate n = 1
[7] = AS-MS, mixture of 1200 compounds/well, Bcl-2 protein, replicate n = 2

T1 sequence (P10415 whole entry): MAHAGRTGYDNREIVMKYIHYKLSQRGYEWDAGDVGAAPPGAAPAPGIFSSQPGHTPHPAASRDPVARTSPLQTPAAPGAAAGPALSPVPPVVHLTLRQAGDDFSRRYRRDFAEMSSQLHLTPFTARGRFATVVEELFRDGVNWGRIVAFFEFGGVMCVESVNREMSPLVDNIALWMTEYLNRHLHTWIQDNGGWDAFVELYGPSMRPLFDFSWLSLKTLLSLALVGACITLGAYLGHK

Row | ASMS ratio (%) n = 1 [1] [%] | ASMS ratio (%) n = 2 [2] [%] | ASMS ratio (%) n = 1 [3] [%] | ASMS ratio (%) n = 2 [4] [%] | SMILES | further results
1 | 0.0 | 0.0 |  |  | CCOc1cncc(-c2ccc(C(=O)N3CCN(c4ccc(C(=O)NS(=O)(=O)C(C)(C)C)cc4)CC3)c3ccccc23)c1 [Compound B2L036-01, N-tert-Butylsulfonyl-4-[4-[4-(5-ethoxypyridin-3-yl)naphthalene-1-carbonyl]piperazin-1-yl]benzamide] | 
2 |  |  | 0.0 | 0.0 | CCOc1cccc(C#Cc2ccccc2CN2CCN(c3ccc(C(=O)NS(=O)(=O)C(C)(C)C)nn3)CC2)c1 [Compound B2L095-01] | 
3 |  |  | 0.0 | 0.0 | CCOc1cncc(C#Cc2cncc(C(=O)N3CCN(c4ccc(C(=O)NS(=O)(=O)CCC(F)(F)F)nn4)CC3)c2)c1 [Compound B2N010-01, 6-[4-[5-[2-(5-Ethoxypyridin-3-yl)ethynyl]pyridine-3-carbonyl]piperazin-1-yl]-N-(3,3,3-trifluoropropylsulfonyl)pyridazine-3-carboxamide] | 
4 |  |  | 14.5 | 15.8 | CCOc1cncc(-c2cnn(-c3cc(C(=O)N4CCN(c5ccc(C(=O)NS(=O)(=O)c6ccc(NCCSc7ccccc7)c(C(F)(F)F)c6)nn5)CC4)cc(C(F)(F)F)c3)c2)c1 [Compound B2R022-01, 6-[4-[3-[4-(5-Ethoxypyridin-3-yl)pyrazol-1-yl]-5-(trifluoromethyl)benzoyl]piperazin-1-yl]-N-[4-(2-phenylsulfanylethylamino)-3-(trifluoromethyl)phenyl]sulfonylpyridazine-3-carboxamide] | 
5 | 0.0 | 0.0 |  |  | CCOc1cccc(C#Cc2cncc(C(=O)N3CCN(c4ccc(C(=O)NS(=O)(=O)C(C)(C)C)nn4)CC3)c2)c1 [Compound B2L009-01, N-tert-Butylsulfonyl-6-[4-[5-[2-(3-ethoxyphenyl)ethynyl]pyridine-3-carbonyl]piperazin-1-yl]pyridazine-3-carboxamide] | 
6 |  |  | 0.0 | 0.0 | CCOc1cncc(-c2cc(CN3CCN(c4ccc(C(=O)NS(=O)(=O)CCC(F)(F)F)nn4)CC3)cc(C(F)(F)F)c2)c1 [Compound B2N088-01, 6-[4-[[3-(5-Ethoxypyridin-3-yl)-5-(trifluoromethyl)phenyl]methyl]piperazin-1-yl]-N-(3,3,3-trifluoropropylsulfonyl)pyridazine-3-carboxamide] | 
7 |  |  |  |  | CCOc1cccc(-c2cc(OC)c(CN3CCN(c4ccc(C(=O)N(CC)CC)cc4)CC3)c(OC)c2)c1 [Compound B4J059-01, 4-[4-[[4-(3-Ethoxyphenyl)-2,6-dimethoxyphenyl]methyl]piperazin-1-yl]-N,N-diethylbenzamide] | ASMS ratio (%) n = 1 (Example 4 mixture library, 1200 compounds/well, Bcl-2 protein, replicate n = 1, value belongs to the MS peak assignable to the compound): −0.1%; ASMS ratio (%) n = 2 [5]: −6.0%
8 |  |  | 0.0 | 4.8 | CCOc1cncc(C#Cc2ccccc2C(=O)N2CCN(c3ccc(C(=O)NS(=O)(=O)c4ccc(NCCSc5ccccc5)c(C(F)(F)F)c4)cc3)CC2)c1 [Compound B2R030-01, 4-[4-[2-[2-(5-Ethoxypyridin-3-yl)ethynyl]benzoyl]piperazin-1-yl]-N-[4-(2-phenylsulfanylethylamino)-3-(trifluoromethyl)phenyl]sulfonylbenzamide] | 
9 | 0.0 | 0.0 |  |  | CCOc1cncc(-c2cc(CN3CCN(c4ccc(C(=O)NS(C)(=O)=O)nn4)CC3)cc(C(F)(F)F)c2)c1 [Compound B2I088-01, 6-[4-[[3-(5-Ethoxypyridin-3-yl)-5-(trifluoromethyl)phenyl]methyl]piperazin-1-yl]-N-methylsulfonylpyridazine-3-carboxamide] | 
10 | 0.0 | 0.0 |  |  | CCOc1cncc(-c2cnn(-c3cc(C(=O)N4CCN(c5ccc(C(=O)NS(=O)(=O)C(C)(C)C)cc5)CC4)cc(C(F)(F)F)c3)c2)c1 [Compound B2L044-01, N-tert-Butylsulfonyl-4-[4-[3-[4-(5-ethoxypyridin-3-yl)pyrazol-1-yl]-5-(trifluoromethyl)benzoyl]piperazin-1-yl]benzamide] | 
11 |  |  | 0.0 | 0.0 | CCOc1cncc(-c2cc(CN3CCN(c4ccc(C(=O)NS(=O)(=O)CCC(F)(F)F)cc4)CC3)cc(OCC)c2)c1 [Compound B2N056-01, 4-[4-[[3-Ethoxy-5-(5-ethoxypyridin-3-yl)phenyl]methyl]piperazin-1-yl]-N-(3,3,3-trifluoropropylsulfonyl)benzamide] | 
12 |  |  | 0.0 | 0.0 | CCOc1cccc(-c2ccc(CN3CCN(c4ccc(C(=O)NS(=O)(=O)CCC(F)(F)F)nn4)CC3)c(OC)c2)c1 [Compound B2N079-01, 6-[4-[[4-(3-Ethoxyphenyl)-2-methoxyphenyl]methyl]piperazin-1-yl]-N-(3,3,3-trifluoropropylsulfonyl)pyridazine-3-carboxamide] | 
13 | 0.0 | 0.0 |  |  | CCOc1cccc(-c2cc(C(=O)N3CCN(c4ccc(C(=O)NS(=O)(=O)C(C)(C)C)nn4)CC3)cc(C(F)(F)F)c2)c1 [Compound B2L017-01, N-tert-Butylsulfonyl-6-[4-[3-(3-ethoxyphenyl)-5-(trifluoromethyl)benzoyl]piperazin-1-yl]pyridazine-3-carboxamide] | 
14 |  |  | 3.8 | 7.1 | CCOc1cccc(-c2cc(CN3CCN(c4ccc(C(=O)NS(=O)(=O)c5ccc(NCCSc6ccccc6)c(C(F)(F)F)c5)nn4)CC3)cc(C(F)(F)F)c2)c1 [Compound B2R087-01] | 
15 |  |  | 0.0 | 0.0 | CCOc1cccc(-c2ccc(C(=O)N3CCN(c4ccc(C(=O)NS(=O)(=O)CCC(F)(F)F)cc4)CC3)cc2C)c1 [Compound B2N025-01, 4-[4-[4-(3-Ethoxyphenyl)-3-methylbenzoyl]piperazin-1-yl]-N-(3,3,3-trifluoropropylsulfonyl)benzamide] | 
16 |  |  |  |  | CCCNC(=O)c1ccc(N2CCN(C(=O)c3ccc(-c4cncc(OCC)c4)c(F)c3)CC2)cc1 [Compound B1M028-01] | ASMS ratio (%) n = 1 [6]: 0.0%; ASMS ratio (%) n = 2 [7]: 0.0%
17 |  |  | 0.0 | 0.0 | CCOc1cncc(-c2cc(C(=O)N3CCN(c4ccc(C(=O)NS(=O)(=O)CCC(F)(F)F)cc4)CC3)cc(C(C)(C)C)c2)c1 [Compound B2N038-01, 4-[4-[3-tert-Butyl-5-(5-ethoxypyridin-3-yl)benzoyl]piperazin-1-yl]-N-(3,3,3-trifluoropropylsulfonyl)benzamide] | 
18 | 0.0 | 0.0 |  |  | CCOc1cncc(-c2csc(CN3CCN(c4ccc(C(=O)NS(C)(=O)=O)cc4)CC3)c2)c1 [Compound B2I068-01, 4-[4-[[4-(5-Ethoxypyridin-3-yl)thiophen-2-yl]methyl]piperazin-1-yl]-N-methylsulfonylbenzamide] | 
19 | 0.0 | 0.0 |  |  | CCOc1cccc(-c2cc(CN3CCN(c4ccc(C(=O)NS(=O)(=O)C(C)(C)C)cc4)CC3)cc(OC(C)C)c2)c1 [Compound B2L057-01, N-tert-Butylsulfonyl-4-[4-[3-(3-ethoxyphenyl)-5-propan-2-yloxyphenylmethyl]piperazin-1-yl]benzamide] | 
20 |  |  | 6.6 | −7.8 | CCOc1cccc(-c2ccc(C(C)N3CCN(c4ccc(C(=O)NS(=O)(=O)c5ccc(NCCSc6ccccc6)c(C(F)(F)F)c5)cc4)CC3)cc2)c1 (centres unmarked) [Compound B2R097-01, 4-[4-[1-[4-(3-Ethoxyphenyl)phenyl]ethyl]piperazin-1-yl]-N-[4-(2-phenylsulfanylethylamino)-3-(trifluoromethyl)phenyl]sulfonylbenzamide] | 
21 |  |  | 3.3 | −0.8 | CCOc1cncc(-c2ccc(CN3CCN(c4ccc(C(=O)NS(=O)(=O)c5ccc(NCCSc6ccccc6)c(C(F)(F)F)c5)cc4)CC3)c(OC)c2)c1 [Compound B2R054-01, 4-[4-[[4-(5-Ethoxypyridin-3-yl)-2-methoxyphenyl]methyl]piperazin-1-yl]-N-[4-(2-phenylsulfanylethylamino)-3-(trifluoromethyl)phenyl]sulfonylbenzamide] | 
22 | −0.2 | 1.0 |  |  | CCOc1cncc(-c2cc(C(=O)N3CCN(c4ccc(C(=O)NS(=O)(=O)C(C)(C)C)cc4)CC3)cc(C(F)(F)F)c2)c1 [Compound B2L040-01, N-tert-Butylsulfonyl-4-[4-[3-(5-ethoxypyridin-3-yl)-5-(trifluoromethyl)benzoyl]piperazin-1-yl]benzamide] | 
23 |  |  |  |  | CCOc1cccc(C#Cc2cc(C(=O)N3CCN(c4ccc(C(=O)N(C)CC56CC7CC(CC(C7)C5)C6)nn4)CC3)cc(C(F)(F)F)c2)c1 [Compound B3A019-01, N-(1-Adamantylmethyl)-6-[4-[3-[2-(3-ethoxyphenyl)ethynyl]-5-(trifluoromethyl)benzoyl]piperazin-1-yl]-N-methylpyridazine-3-carboxamide] | ASMS ratio (%) n = 1 [6]: 2.6%; ASMS ratio (%) n = 2 [7]: −2.3%
24 |  |  |  |  | CCOc1cccc(-c2cc(CN3CCN(c4ccc(C(=O)NS(=O)(=O)c5ccc(NCCSc6ccccc6)c([N+](=O)[O-])c5)nn4)CC3)cc(OC(F)(F)F)c2)c1 [Compound B2Q089-01, 6-[4-[[3-(3-Ethoxyphenyl)-5-(trifluoromethoxy)phenyl]methyl]piperazin-1-yl]-N-[3-nitro-4-(2-phenylsulfanylethylamino)phenyl]sulfonylpyridazine-3-carboxamide] | ASMS ratio (%) n = 2 [5]: −15.0%
